# Patent US9695155B2, “Herbicidal substituted pyrimidinyloxy benzene compounds” (E. I. DU PONT DE NEMOURS AND COMPANY, priority 2013, dated 2017)
# What was measured:
# Assay in all cases: Test E preemergence
# green foxtail = assay type: in vivo, Setaria viridis; conditions: for Foxtail, Green plant response rating: scale 0 to 100 (0 no effect, 100 complete control)
# Description: (§1) Seeds of plant species selected from corn (Zea mays), soybean (Glycine max), velvetleaf (Abutilon theophrasti), lambsquarters (Chenopodium album), wild poinsettia (Euphorbia heterophylla), palmer pigweed (Amaranthus palmeri), waterhemp (common waterhemp, Amaranthus rudis), surinam grass (Brachiaria decumbens), large (Lg) crabgrass (Digitaria sanguinalis), Brazilian crabgrass (Digitaria horizontalis), fall panicum (Panicum dichotomiflorum), giant foxtail (Setaria faberii), green foxtail (Setaria viridis), goosegrass (Eleusine indica), johnsongrass (Sorghum halepense), ragweed (common ragweed, Ambrosia elatior), barnyardgrass (Echinochloa crus-galli), sandbur (southern sandbur, Cenchrus echinatus), arrowleaf sida (Sida rhombifolia), Italian ryegrass (Lolium multiflorum), dayflower (Virginia (VA) dayflower, Commelina virginica), field bindweed (Convolvulus arvensis), morningglory (Ipomoea coccinea), nightshade (eastern black nightshade, Solanum ptycanthum), kochia (Kochia scoparia), yellow nutsedge (Cyperus esculentus), cocklebur (common cocklebur, Xanthium strumarium), smartweed (ladysthumb smartweed, and hairy beggarticks (Bidens pilosa), were planted into a silt loam soil and treated preemergence with test chemicals formulated in a non-phytotoxic solvent mixture which included a surfactant.
# (§2) At the same time, plants from these crop and weed species and also horseweed (Canada horseweed, Conyza canadensis), waterhemp_RES1, (ALS & Triazine resistant common waterhemp, Amaranthus rudis), and waterhemp_RES2, (ALS & HPPD resistant common waterhemp, Amaranthus rudis) were planted in pots containing Redi-Earth® planting medium (Scotts Company, 14111 Scottslawn Road, Marysville, Ohio 43041) comprising spaghnum peat moss, vermiculite, wetting agent and starter nutrients were treated with postemergence applications of test chemicals formulated in the same manner. Plants ranged in height from 2 to 18 cm for postemergence treatments (1- to 4-leaf stage). Treated plants and controls were maintained in a greenhouse for 14 to 21 days, after which time all species were compared to controls and visually evaluated. Plant response ratings, summarized in Table E, are based on a scale of 0 to 100 where 0 is no effect and 100 is complete control. A dash (-) response means no test result.
# fall panicum = assay type: in vivo, Panicum dichotomiflorum; conditions: for Panicum, Fall plant response rating: scale 0 to 100 (0 no effect, 100 complete control)
# Description: as §1, §2
# velvetleaf = assay type: in vivo, Abutilon theophrasti; conditions: for Velvetleaf plant response rating: scale 0 to 100 (0 no effect, 100 complete control)
# Description: as §1, §2
# large (Lg) crabgrass = assay type: in vivo, Digitaria sanguinalis; conditions: for Crabgrass, Large plant response rating: scale 0 to 100 (0 no effect, 100 complete control)
# Description: as §1, §2
# johnsongrass = assay type: in vivo, Sorghum halepense; conditions: for Johnsongrass plant response rating: scale 0 to 100 (0 no effect, 100 complete control)
# Description: as §1, §2
# barnyardgrass = assay type: in vivo, Echinochloa crus-galli; conditions: for Barnyardgrass plant response rating: scale 0 to 100 (0 no effect, 100 complete control)
# Description: as §1, §2
# wild poinsettia = assay type: in vivo, Euphorbia heterophylla; conditions: for Poinsettia, Wild plant response rating: scale 0 to 100 (0 no effect, 100 complete control)
# Description: as §1, §2
# nightshade = assay type: in vivo, Solanum ptycanthum; conditions: for Nightshade plant response rating: scale 0 to 100 (0 no effect, 100 complete control)
# Description: as §1, §2
# giant foxtail = assay type: in vivo, Setaria faberii; conditions: for Foxtail, Giant plant response rating: scale 0 to 100 (0 no effect, 100 complete control)
# Description: as §1, §2
# morningglory = assay type: in vivo, Ipomoea coccinea; conditions: for Morningglory plant response rating: scale 0 to 100 (0 no effect, 100 complete control)
# Description: as §1, §2
# Brazilian crabgrass = assay type: in vivo, Digitaria horizontalis; conditions: for Crabgrass, Brazil plant response rating: scale 0 to 100 (0 no effect, 100 complete control)
# Description: as §1, §2
# [1] = 125 g ai/ha, scale 0 to 100, 0 no effect, 100 complete control
# [2] = preemergence, 125 g ai/ha, scale 0 to 100, 0 no effect, 100 complete control
# [3] = 8 g ai/ha, scale 0 to 100, 0 is no effect, 100 is complete control
# [4] = 250 g ai/ha, scale 0 to 100, 0 no effect, 100 complete control
compound,measurement,setting,value
Cc1cnc(Oc2cccc(C#N)c2-n2cc(C#N)cn2)nc1 [Compound 90],"Foxtail, Green plant response rating",green foxtail; 16 g ai/ha,0
same,"Foxtail, Green plant response rating",green foxtail; 31 g ai/ha,0
same,"Foxtail, Green plant response rating",green foxtail; 62 g ai/ha,10
same,"Plant response rating, Foxtail, Green",green foxtail; [1],50
same,"Panicum, Fall plant response rating",fall panicum; 16 g ai/ha,0
same,"Panicum, Fall plant response rating",fall panicum; 31 g ai/ha,0
same,"Panicum, Fall plant response rating",fall panicum; 62 g ai/ha,0
same,"Plant response rating, Panicum, Fall",fall panicum; [1],80
same,Velvetleaf plant response rating,velvetleaf; 16 g ai/ha,0
same,Velvetleaf plant response rating,velvetleaf; 31 g ai/ha,20
same,Velvetleaf plant response rating,velvetleaf; 62 g ai/ha,60
same,"Plant response rating, Velvetleaf",velvetleaf; [1],85
same,"Crabgrass, Large plant response rating",large (Lg) crabgrass; 16 g ai/ha,30
same,"Crabgrass, Large plant response rating",large (Lg) crabgrass; 31 g ai/ha,40
same,"Crabgrass, Large plant response rating",large (Lg) crabgrass; 62 g ai/ha,75
same,"Plant response rating, Crabgrass, Large",large (Lg) crabgrass; [1],98
same,Johnsongrass plant response rating,johnsongrass; 16 g ai/ha,0
same,Johnsongrass plant response rating,johnsongrass; 31 g ai/ha,0
same,Johnsongrass plant response rating,johnsongrass; 62 g ai/ha,0
same,"Plant response rating, Johnsongrass",johnsongrass; [1],15
same,Barnyardgrass plant response rating,"barnyardgrass; 16 g ai/ha, preemergence",0
same,Barnyardgrass plant response rating,"barnyardgrass; 31 g ai/ha, preemergence",0
same,"Plant response rating, Barnyardgrass","barnyardgrass; Preemergence, 62 g ai/ha, scale 0 to 100, 0 no effect, 100 complete control",0
same,"Plant response rating, Barnyardgrass",barnyardgrass; [2],40
same,"Poinsettia, Wild plant response rating",wild poinsettia; 16 g ai/ha,10
same,"Poinsettia, Wild plant response rating",wild poinsettia; 31 g ai/ha,35
same,"Poinsettia, Wild plant response rating",wild poinsettia; 62 g ai/ha,70
same,"Plant response rating, Poinsettia, Wild",wild poinsettia; [1],75
same,Nightshade plant response rating,nightshade; 16 g ai/ha,10
same,Nightshade plant response rating,nightshade; 31 g ai/ha,10
same,Nightshade plant response rating,nightshade; 62 g ai/ha,80
same,"Plant response rating, Nightshade",nightshade; [1],80
same,"Foxtail, Giant plant response rating",giant foxtail; 16 g ai/ha,0
same,"Foxtail, Giant plant response rating",giant foxtail; 31 g ai/ha,0
same,"Foxtail, Giant plant response rating",giant foxtail; 62 g ai/ha,15
same,"Plant response rating, Foxtail, Giant",giant foxtail; [1],50
same,Morningglory plant response rating,morningglory; 16 g ai/ha,0
same,Morningglory plant response rating,morningglory; 31 g ai/ha,0
same,Morningglory plant response rating,morningglory; 62 g ai/ha,20
same,"Plant response rating, Morningglory",morningglory; [1],35
same,"Crabgrass, Brazil plant response rating",Brazilian crabgrass; 16 g ai/ha,0
same,"Crabgrass, Brazil plant response rating",Brazilian crabgrass; 31 g ai/ha,20
same,"Crabgrass, Brazil plant response rating",Brazilian crabgrass; 62 g ai/ha,50
same,"Plant response rating, Crabgrass, Brazil",Brazilian crabgrass; [1],80
FC(F)c1cccc(Oc2ncc(Cl)cn2)c1-n1cc(C(F)(F)F)cn1 [Compound 170],"Plant response rating, Foxtail, Green",green foxtail; [3],0
same,"Foxtail, Green plant response rating",green foxtail; 16 g ai/ha,0
same,"Foxtail, Green plant response rating",green foxtail; 31 g ai/ha,40
same,"Foxtail, Green plant response rating",green foxtail; 62 g ai/ha,90
same,"Plant response rating, Foxtail, Green",green foxtail; [1],100
same,"Plant response rating, Panicum, Fall",fall panicum; [3],0
same,"Panicum, Fall plant response rating",fall panicum; 31 g ai/ha,20
same,"Panicum, Fall plant response rating",fall panicum; 62 g ai/ha,98
same,"Plant response rating, Panicum, Fall",fall panicum; [1],100
same,"Plant response rating, Velvetleaf",velvetleaf; [3],0
same,Velvetleaf plant response rating,velvetleaf; 31 g ai/ha,60
same,Velvetleaf plant response rating,velvetleaf; 62 g ai/ha,65
same,"Plant response rating, Velvetleaf",velvetleaf; [1],100
same,"Plant response rating, Crabgrass, Large",large (Lg) crabgrass; [3],0
same,"Crabgrass, Large plant response rating",large (Lg) crabgrass; 16 g ai/ha,0
same,"Crabgrass, Large plant response rating",large (Lg) crabgrass; 31 g ai/ha,70
same,"Crabgrass, Large plant response rating",large (Lg) crabgrass; 62 g ai/ha,98
same,"Plant response rating, Crabgrass, Large",large (Lg) crabgrass; [1],100
same,"Plant response rating, Johnsongrass",johnsongrass; [3],15
same,Johnsongrass plant response rating,johnsongrass; 31 g ai/ha,15
same,Johnsongrass plant response rating,johnsongrass; 62 g ai/ha,25
same,"Plant response rating, Johnsongrass",johnsongrass; [1],70
same,"Plant response rating, Barnyardgrass","barnyardgrass; 8 g ai/ha, preemergence, scale 0 to 100, 0 is no effect, 100 is complete control",0
same,Barnyardgrass plant response rating,"barnyardgrass; 16 g ai/ha, preemergence",0
same,Barnyardgrass plant response rating,"barnyardgrass; 31 g ai/ha, preemergence",0
same,Barnyardgrass plant response rating,"barnyardgrass; 62 g ai/ha, preemergence",35
same,"Plant response rating, Barnyardgrass",barnyardgrass; [2],75
same,"Plant response rating, Poinsettia, Wild",wild poinsettia; [3],0
same,"Poinsettia, Wild plant response rating",wild poinsettia; 31 g ai/ha,20
same,"Poinsettia, Wild plant response rating",wild poinsettia; 62 g ai/ha,25
same,"Plant response rating, Poinsettia, Wild",wild poinsettia; [1],40
same,"Plant response rating, Nightshade",nightshade; [3],0
same,Nightshade plant response rating,nightshade; 31 g ai/ha,50
same,Nightshade plant response rating,nightshade; 62 g ai/ha,98
same,"Plant response rating, Nightshade",nightshade; [1],98
same,"Plant response rating, Foxtail, Giant",giant foxtail; [3],0
same,"Foxtail, Giant plant response rating",giant foxtail; 16 g ai/ha,0
same,"Foxtail, Giant plant response rating",giant foxtail; 31 g ai/ha,25
same,"Foxtail, Giant plant response rating",giant foxtail; 62 g ai/ha,100
same,"Plant response rating, Foxtail, Giant",giant foxtail; [1],100
same,"Plant response rating, Morningglory",morningglory; [3],0
same,Morningglory plant response rating,morningglory; 31 g ai/ha,10
same,Morningglory plant response rating,morningglory; 62 g ai/ha,35
same,"Plant response rating, Morningglory",morningglory; [1],95
same,"Plant response rating, Crabgrass, Brazil",Brazilian crabgrass; [3],30
same,"Crabgrass, Brazil plant response rating",Brazilian crabgrass; 16 g ai/ha,40
same,"Crabgrass, Brazil plant response rating",Brazilian crabgrass; 31 g ai/ha,100
same,"Crabgrass, Brazil plant response rating",Brazilian crabgrass; 62 g ai/ha,100
same,"Plant response rating, Crabgrass, Brazil",Brazilian crabgrass; [1],100
Cc1cnc(Oc2cccc(C#N)c2-n2cc(C(F)(F)F)cn2)nc1 [Compound 180],"Foxtail, Green plant response rating",green foxtail; 31 g ai/ha,65
same,"Foxtail, Green plant response rating",green foxtail; 62 g ai/ha,100
same,"Plant response rating, Foxtail, Green",green foxtail; [1],100
same,"Plant response rating, Foxtail, Green",green foxtail; [4],100
same,"Panicum, Fall plant response rating",fall panicum; 31 g ai/ha,95
same,"Panicum, Fall plant response rating",fall panicum; 62 g ai/ha,100
same,"Plant response rating, Panicum, Fall",fall panicum; [1],100
same,"Plant response rating, Panicum, Fall",fall panicum; [4],100
same,Velvetleaf plant response rating,velvetleaf; 31 g ai/ha,35
same,Velvetleaf plant response rating,velvetleaf; 62 g ai/ha,80
same,"Plant response rating, Velvetleaf",velvetleaf; [1],100
same,"Plant response rating, Velvetleaf",velvetleaf; [4],100
same,"Crabgrass, Large plant response rating",large (Lg) crabgrass; 31 g ai/ha,90
same,"Crabgrass, Large plant response rating",large (Lg) crabgrass; 62 g ai/ha,98
same,"Plant response rating, Crabgrass, Large",large (Lg) crabgrass; [1],100
same,"Plant response rating, Crabgrass, Large",large (Lg) crabgrass; [4],100
same,Johnsongrass plant response rating,johnsongrass; 31 g ai/ha,0
same,Johnsongrass plant response rating,johnsongrass; 62 g ai/ha,50
same,"Plant response rating, Johnsongrass",johnsongrass; [1],75
same,"Plant response rating, Johnsongrass",johnsongrass; [4],80
same,Barnyardgrass plant response rating,"barnyardgrass; 31 g ai/ha, preemergence",20
same,Barnyardgrass plant response rating,"barnyardgrass; 62 g ai/ha, preemergence",98
same,"Plant response rating, Barnyardgrass",barnyardgrass; [2],100
same,"Plant response rating, Barnyardgrass","barnyardgrass; preemergence, 250 g ai/ha, scale 0 to 100, 0 no effect, 100 complete control",100
same,"Poinsettia, Wild plant response rating",wild poinsettia; 31 g ai/ha,10
same,"Poinsettia, Wild plant response rating",wild poinsettia; 62 g ai/ha,15
same,"Plant response rating, Poinsettia, Wild",wild poinsettia; [1],65
same,"Plant response rating, Poinsettia, Wild",wild poinsettia; [4],98
same,Nightshade plant response rating,nightshade; 31 g ai/ha,75
same,Nightshade plant response rating,nightshade; 62 g ai/ha,98
same,"Plant response rating, Nightshade",nightshade; [1],98
same,"Plant response rating, Nightshade",nightshade; [4],100
same,"Foxtail, Giant plant response rating",giant foxtail; 31 g ai/ha,75
same,"Foxtail, Giant plant response rating",giant foxtail; 62 g ai/ha,100
same,"Plant response rating, Foxtail, Giant",giant foxtail; [1],100
same,"Plant response rating, Foxtail, Giant",giant foxtail; [4],100
same,Morningglory plant response rating,morningglory; 31 g ai/ha,0
same,Morningglory plant response rating,morningglory; 62 g ai/ha,15
same,"Plant response rating, Morningglory",morningglory; [1],60
same,"Plant response rating, Morningglory",morningglory; [4],100
same,"Crabgrass, Brazil plant response rating",Brazilian crabgrass; 31 g ai/ha,90
same,"Crabgrass, Brazil plant response rating",Brazilian crabgrass; 62 g ai/ha,100
same,"Plant response rating, Crabgrass, Brazil",Brazilian crabgrass; [1],100
same,"Plant response rating, Crabgrass, Brazil",Brazilian crabgrass; [4],100
